Experimental data reported in publication PMC9046208, “Foldamers reveal and validate therapeutic targets associated with toxic α-synuclein self-assembly” (Nature Communications, 2022).

Tested on: SH-SY5Y cells
Experiment: MTT cytotoxicity assay, SH-SY5Y cells
Type: cell-based
Settings: 24 h, αS alone 48 ± 3%
Method: An MTT assay was conducted to assess the effect of SK-129 on the cytotoxicity mediated by αS aggregation in SH-SY5Y cells. The cells were cultured in phenol red-free Dulbeco’s Modified Eagle Medium (DMEM) with 10% Fetal Bovine Serum (FBS) and 1% penicillin-streptomycin (Pen/strep) at 37 °C and 5% CO2(g). The cells were plated in a clear, flat bottom 96-well cell culture plate (Costar, Kennebunk, ME) using a density of 10,000 cells per well with more than 90% cell viability. After incubating for 24 h, the media was aspirated, and 100 µL of fresh OptiMEM (Fisher Scientific, Pittsburgh, PA) was added, […] of various ligands at various stoichiometric ratios. The samples were then incubated for an additional 24 h at 37 °C and 5% CO2(g), followed by the addition of MTT dye (10 µL per well, prepared in 1x PBS buffer, 5 mg/mL). The plates were covered in aluminum foil and incubated again for 3 h. The solution in each well was carefully removed without disturbing the formazan crystals and replaced with 100 µL of DMSO to dissolve the formazan crystals. Subsequently, the plate was shaken in a 96-well plate reader for 5 min before measuring the absorbance at 570 nm. The cell viability was reported on a scale of 100%, using the control wells with regular media as 100% viability and the wells with 10% DMSO (v/v) as 0% viability.

SMILES: COC(=O)c1cc(OCC(=O)O)c2cccc(NC(=O)c3cc(OC(C)C)c4cccc(NC(=O)c5cc(OCC(=O)O)c6cccc(NC(=O)c7cc(OC(C)C)c8cccc([N+](=O)[O-])c8n7)c6n5)c4n3)c2n1 [SK-129]
- viability of SH-SY5Y cells (10 μM αS aggregated with SK-129, 1:0.1 (αS:SK-129)): 91 ± 4%
- viability of SH-SY5Y cells (10 μM αS aggregated with SK-129, 1:1 (αS:SK-129)): 97 ± 4%
